Results on 63 compounds are retold here after ChEMBL document CHEMBL1158607, “2' biaryl amides as novel and subtype selective M1 agonists. Part I: Identification, synthesis, and initial SAR” (Bioorg Med Chem Lett, 2010).

Assay [1] concerns the target T1, Muscarinic acetylcholine receptor M1 (Homo sapiens, UniProt P11229).
T1 sequence (P11229 whole entry): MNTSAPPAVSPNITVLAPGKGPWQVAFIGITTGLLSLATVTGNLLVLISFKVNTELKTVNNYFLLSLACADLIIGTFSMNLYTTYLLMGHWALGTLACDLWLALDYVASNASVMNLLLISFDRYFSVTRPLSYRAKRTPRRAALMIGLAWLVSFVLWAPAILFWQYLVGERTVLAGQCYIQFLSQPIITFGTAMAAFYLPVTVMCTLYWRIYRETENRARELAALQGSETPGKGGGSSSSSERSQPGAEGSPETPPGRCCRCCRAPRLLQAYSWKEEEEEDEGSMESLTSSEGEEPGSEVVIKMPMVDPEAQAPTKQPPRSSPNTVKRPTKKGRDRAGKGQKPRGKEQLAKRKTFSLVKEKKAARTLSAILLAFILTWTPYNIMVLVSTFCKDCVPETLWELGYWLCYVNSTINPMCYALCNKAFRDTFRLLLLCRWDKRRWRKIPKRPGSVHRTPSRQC
Nature of the assay: Agonist activity at human muscarinic M1 receptor expressed in CHO cells assessed as effect on acetylcholine-induced intracellular calcium level by FLIPR assay. It is filed as functional, cell-based.

Assay [2] addresses T2, Muscarinic acetylcholine receptor M1 (Homo sapiens) (UniProt P11229).
T2 sequence (whole entry): T1 sequence (P11229 whole entry)
Put plainly: Intrinsic activity at human muscarinic M1 receptor expressed in CHO cells assessed as effect on acetylcholine-induced intracellular calcium level by FLIPR assay relative to acetylcholine. It counts as functional, cell-based.

One may read the EC50 as the midpoint of the concentration-response curve.

Regarding `CS(=O)(=O)c1cccc(-c2ccccc2C(=O)NCC2CCNCC2)c1`, the EC50 in assay [1] was over 10 µM.
For the compound `O=C(NCC1CCNCC1)c1ccccc1-c1cc(Cl)cc(Cl)c1`, in assay [2], the Intrinsic activity is 24%. For the same compound, the EC50 in assay [1] is over 10 µM.
Take `O=C(NCC1CCNCC1)c1ccccc1-c1cccnc1`: the EC50 in assay [1] is over 10 µM.
In the case of `CC(=O)Nc1cccc(-c2ccccc2C(=O)NCC2CCNCC2)c1`, in assay [1], the concentration for a half-maximal effect (EC50) is over 10 µM.
For `COc1ccc(-c2ccccc2C(=O)NCC2CCNCC2)cc1`, in assay [1], the half-maximal effective concentration (EC50) is over 10 µM.
Still for that read-out and setting: as for `O=C(NCC1CNCCO1)c1ccccc1-c1nc(Cl)cs1` (centres undefined), the figure is over 10 µM.
The same measure, in the same setting: as for `O=C(NCC1CCNCC1)c1ccccc1-c1ccsc1`, the figure is over 10 µM.
Regarding `O=C(NCC1CCNCC1)c1ccccc1-c1cc(Cl)ccc1Cl`, the Intrinsic activity in assay [2] is 100%. The EC50 in assay [1] was 0.0398 µM.
As to `CN(C)C(=O)c1cccc(-c2ccccc2C(=O)NCC2CCNCC2)c1`, the concentration for a half-maximal effect (EC50) in assay [1] is over 10 µM.
In the case of `CC(NC(=O)c1ccccc1-c1cccc(Cl)c1)C1CCNCC1` (centres undefined), the Intrinsic activity in assay [2] stood at 26%. In assay [1], the 50% effective concentration (EC50) is over 10 µM.
In the case of `O=C(NCC1CCOCC1)c1ccccc1-c1nc(Cl)cs1`, the EC50 in assay [1] is over 10 µM.
Consider `Cc1ccc(-c2ccccc2C(=O)NCC2CCNCC2)cc1`, for which the EC50 in assay [1] was over 10 µM.
For `O=C(NCC1CCNCC1)c1ccccc1-c1cccc(Cl)c1F`, in assay [2], the Intrinsic activity is 66%. For the same compound, the EC50 in assay [1] is 1 µM.
The like results for `O=C(NCC1CCNCC1)c1ccccc1-c1ccc(F)c(Cl)c1` were, in that order, 76% and 0.0251 µM.
For `O=C(NCC1CCNCC1)c1ccccc1-c1ccco1`, the concentration giving a half-maximal response (EC50) in assay [1] was over 10 µM.
On to `O=C(NCC1CCNCC1)c1ccccc1-c1ccc(Cl)c(Cl)c1`, for which the Intrinsic activity in assay [2] came to 59%. Further, the EC50 in assay [1] is 0.0501 µM.
The matching figures for `Cc1cc(Cl)cc(-c2ccccc2C(=O)NCC2CCNCC2)c1`: 52% and 1.58 µM.
In the case of `O=C(NCC1CCNCC1)c1ccccc1-c1ccc2ccccc2c1`, in assay [1], the EC50 is over 10 µM.
As for `CN(CC1CCNCC1)C(=O)c1ccccc1-c1cccc(Cl)c1`, the Intrinsic activity in assay [2] was 2%. The EC50 in assay [1] was over 10 µM.
Turning to `O=C(NCC1CCNCC1)c1ccccc1-c1nccs1`, in assay [1], the EC50 is over 10 µM.
The same measure, in the same setting: as for `COc1cccc(-c2ccccc2C(=O)NCC2CCNCC2)c1`, the figure is over 10 µM.
For `CN1CCC(CNC(=O)c2ccccc2-c2cccc(Cl)c2)CC1`, the Intrinsic activity in assay [2] came out at 16%. The EC50 in assay [1] was over 10 µM.
Consider `O=C(NCC12CCN(CC1)C2)c1ccccc1-c1cccc(Cl)c1`, for which the concentration giving a half-maximal response (EC50) in assay [1] was over 10 µM.
Still for that read-out and setting: in the case of `N#Cc1cccc(-c2ccccc2C(=O)NCC2CCNCC2)c1` it was over 10 µM.
The same measure, in the same setting: as for `O=C(NC1CCNC1)c1ccccc1-c1nc(Cl)cs1` (centres undefined), the figure is over 10 µM.
Regarding `CC1(CNC(=O)c2ccccc2-c2cccc(Cl)c2)CCNCC1`, the Intrinsic activity in assay [2] was determined as 45%. In addition, the EC50 in assay [1] was over 10 µM.
With `O=C(NCC1CCNCC1)c1ccccc1-c1cccc(C(F)(F)F)c1`, the EC50 in assay [1] was over 10 µM.
Same read-out and setting: in the case of `CC1(C)CNCCC1CNC(=O)c1cc(Cl)ccc1-c1cccc(Cl)c1` (centres undefined) it was over 10 µM.
Consider `O=C(NCC1CCNCC1)c1ccccc1-c1cc(F)cc(Cl)c1`, for which the Intrinsic activity in assay [2] stood at 17%. In addition, in assay [1], the 50% effective concentration (EC50) was over 10 µM.
Turning to `O=C(O)c1cccc(-c2ccccc2C(=O)NCC2CCNCC2)c1`, in assay [1], the EC50 is over 10 µM.
Still for that read-out and setting: as for `O=C(NCC1CCNCC1)c1ccccc1-c1ccc(F)cc1`, the figure is over 10 µM.
For `CC1CC(CNC(=O)c2ccccc2-c2cccc(Cl)c2)CCN1` (centres undefined), in assay [2], the Intrinsic activity was determined as 28%. Moreover, the concentration giving a half-maximal response (EC50) in assay [1] is over 10 µM.
With `Cc1cccc(-c2ccccc2C(=O)NCC2CCNCC2)c1`, the half-maximal effective concentration (EC50) in assay [1] is over 10 µM.
For `Cc1ccc(Cl)cc1-c1ccccc1C(=O)NCC1CCNCC1`, the Intrinsic activity in assay [2] worked out at 86%. In assay [1], the EC50 was 0.158 µM.
For `O=C(NCC12CCN(CC1)CC2)c1ccccc1-c1cccc(Cl)c1`, the concentration for a half-maximal effect (EC50) in assay [1] was over 10 µM.
On the same count and under the same terms, as for `NC(=O)c1cccc(-c2ccccc2C(=O)NCC2CCNCC2)c1`, the figure is over 10 µM.
The same measure, in the same setting: as for `O=C(NC1CCCNC1)c1ccccc1-c1nc(Cl)cs1` (centres undefined), the figure is over 10 µM; as for `O=C(NCC1CCCN1)c1ccccc1-c1nc(Cl)cs1` (centres undefined), over 10 µM.
Same read-out and setting: in the case of `O=C(NC[C@H]1C[C@H]2CC[C@@H](C1)N2)c1ccccc1-c1cccc(Cl)c1` it was over 10 µM; in that of `O=C(NCc1ccncc1)c1ccccc1-c1nc(Cl)cs1`, over 10 µM; in that of `CC(=O)c1cccc(-c2ccccc2C(=O)NCC2CCNCC2)c1`, over 10 µM.
For `O=C(NCC1CCN2CCCC1C2)c1ccccc1-c1cccc(Cl)c1` (centres undefined), the EC50 in assay [1] was over 10 µM.
On the same count and under the same terms, as for `O=C(NC1CCNCC1)c1ccccc1-c1nc(Cl)cs1`, the figure is over 10 µM; as for `N[C@H]1CC[C@H](CNC(=O)c2ccccc2-c2cccc(Cl)c2)CC1`, over 10 µM; as for `O=C(NCC1CCNCC1)c1ccccc1-c1ccncc1`, over 10 µM.
Still for that read-out and setting: as for `O=C(NCC1CCNCC1)c1ccccc1-c1cccc(OC(F)(F)F)c1`, the figure is over 10 µM; as for `NS(=O)(=O)c1cccc(-c2ccccc2C(=O)NCC2CCNCC2)c1`, over 10 µM.
Still for that read-out and setting: as for `COc1ccccc1-c1ccccc1C(=O)NCC1CCNCC1`, the figure is over 10 µM; as for `COCc1cccc(-c2ccccc2C(=O)NCC2CCNCC2)c1`, over 10 µM.
On to `O=C(NCC12CCN(CC1)CC2)c1ccccc1-c1nc(Cl)cs1`, for which the Intrinsic activity in assay [2] was 63%. The EC50 in assay [1] was 0.251 µM.
As to `O=C(NC1CCCCNC1)c1ccccc1-c1nc(Cl)cs1` (centres undefined), the EC50 in assay [1] is over 10 µM.
On the same count and under the same terms, in the case of `O=C(NCC1CCNCC1)c1ccccc1-c1cccc(-c2ccccc2)c1` it was over 10 µM.
Still for that read-out and setting: as for `O=C(NCC1CCNCC1)c1ccccc1-c1cccc2ccccc12`, the figure is over 10 µM.
The same measure, in the same setting: as for `O=C(NCC1CCNCC1)c1ccccc1-c1ccc(Cl)s1`, the figure is over 10 µM; as for `O=C(NCC1CCNCC1)c1ccccc1-c1cccs1`, over 10 µM.
Consider `O=C(NCC1CCNCC1)c1ccccc1-c1cccc(Cl)c1Cl`, for which, in assay [2], the Intrinsic activity was found to be 16%. The concentration for a half-maximal effect (EC50) in assay [1] is over 10 µM.
Turning to `O=C(NCC1CCCNC1)c1ccccc1-c1nc(Cl)cs1` (centres undefined), the EC50 in assay [1] was over 10 µM.
Still for that read-out and setting: as for `O=C(NCC1CCNCC1)c1ccccc1-c1cccc(F)c1`, the figure is over 10 µM.
For `O=C(NCC1CCNC1)c1ccccc1-c1nc(Cl)cs1` (centres undefined), the concentration giving a half-maximal response (EC50) in assay [1] is over 10 µM.
Take `Cc1c(Cl)cccc1-c1ccccc1C(=O)NCC1CCNCC1`: in assay [2], the Intrinsic activity amounted to 5%. Further, the EC50 in assay [1] was over 10 µM.
Consider `O=C(NCC1CCNCC1)c1ccccc1-c1ccc(C(F)(F)F)cc1`, for which, in assay [1], the concentration for a half-maximal effect (EC50) is over 10 µM.
Regarding `CN(C)c1cccc(-c2ccccc2C(=O)NCC2CCNCC2)c1`, the EC50 in assay [1] is over 10 µM.
The same measure, in the same setting: as for `O=C(NCC1CCNCC1)c1ccccc1-c1ccccc1Cl`, the figure is over 10 µM.
